Reference: PubChem BioAssay AID1963451 (Molecular Pharmacology Branch, DTP, NCI, 2024)

Test system: 521955-158-R6-J3-PDC complex spheroid growth, % test/control
Assay: Anticancer human tumor 521955-158-R6-J3-PDC patient-derived pancreatic carcinoma cell line growth inhibition [Asc]
Conditions: for IC50: curve of first compound; for viability, T/C: stronger effect = lower value
Method in brief: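 Stromal components (HUVEC and hMSC) are co-assembled with the cancer cells into multicellular spheroids. Drugs are then added singly or paired, at concentrations falling by half-log increments from a clinically achievable maximum, capped at 10 microM without known Cmax.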
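Also: spheroids exposed to compounds for 7 days.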
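For viability, T/C in this document: 100% = DMSO vehicle control wells.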

With C=C(F)C(=O)N1CCN(c2nc(OCC3CCCN3C)nc3c2CCN(c2cccc4cccc(Cl)c24)C3)CC1CC#N (centres undefined) + CCN1C(C(=O)NC23CCC(C(=O)O)(CC2)CC3)C(c2cccc(Cl)c2F)C2(C(=O)Nc3cc(Cl)ccc32)C12CCCCC2 the IC50 (second compound 0.00949 µM) was 4.82 µM, the IC50 (second compound 0.03 µM) was 5.19 µM and the IC50 (second compound 0.0949 µM) was 4.75 µM. The IC50 (second compound 0.3 µM) was 5.35 µM, the IC50 (second compound 0.949 µM) was 5.09 µM and the IC50 (second compound 3 µM) was 5.58 µM. For the same molecule, the viability, T/C (second compound 0.00949 µM, first compound 0.0316 µM) was 107%, the viability, T/C (second compound 0.00949 µM, first compound 0.1 µM) was 98.7% and the viability, T/C (second compound 0.00949 µM, first compound 0.316 µM) was 102%. It also gave a viability, T/C (second compound 0.00949 µM, first compound 1 µM) of 95.6%, a viability, T/C (second compound 0.00949 µM, first compound 3.16 µM) of 79.4% and a viability, T/C (second compound 0.00949 µM, first compound 10 µM) of 0.48%. It also gave a viability, T/C (second compound 0.03 µM, first compound 0.0316 µM) of 117%, a viability, T/C (second compound 0.03 µM, first compound 0.1 µM) of 108% and a viability, T/C (second compound 0.03 µM, first compound 0.316 µM) of 111%. For the same molecule, the viability, T/C (second compound 0.03 µM, first compound 1 µM) was 91.7%, the viability, T/C (second compound 0.03 µM, first compound 3.16 µM) was 90.2% and the viability, T/C (second compound 0.03 µM, first compound 10 µM) was 2.78%. The viability, T/C (second compound 0.0949 µM, first compound 0.0316 µM) was 113%, the viability, T/C (second compound 0.0949 µM, first compound 0.1 µM) was 121% and the viability, T/C (second compound 0.0949 µM, first compound 0.316 µM) was 108%. It also gave a viability, T/C (second compound 0.0949 µM, first compound 1 µM) of 94%, a viability, T/C (second compound 0.0949 µM, first compound 3.16 µM) of 81.8% and a viability, T/C (second compound 0.0949 µM, first compound 10 µM) of 0.48%. The viability, T/C (second compound 0.3 µM, first compound 0.0316 µM) was 109%, the viability, T/C (second compound 0.3 µM, first compound 0.1 µM) was 97.7% and the viability, T/C (second compound 0.3 µM, first compound 0.316 µM) was 96%. For the same molecule, the viability, T/C (second compound 0.3 µM, first compound 1 µM) was 92.4%, the viability, T/C (second compound 0.3 µM, first compound 3.16 µM) was 91.6% and the viability, T/C (second compound 0.3 µM, first compound 10 µM) was 0.41%. It also gave a viability, T/C (second compound 0.949 µM, first compound 0.0316 µM) of 103%, a viability, T/C (second compound 0.949 µM, first compound 0.1 µM) of 110% and a viability, T/C (second compound 0.949 µM, first compound 0.316 µM) of 103%. It also gave a viability, T/C (second compound 0.949 µM, first compound 1 µM) of 113%, a viability, T/C (second compound 0.949 µM, first compound 3.16 µM) of 84.9% and a viability, T/C (second compound 0.949 µM, first compound 10 µM) of 0.49%. The viability, T/C (second compound 3 µM, first compound 0.0316 µM) was 94%, the viability, T/C (second compound 3 µM, first compound 0.1 µM) was 109% and the viability, T/C (second compound 3 µM, first compound 0.316 µM) was 102%. The viability, T/C (second compound 3 µM, first compound 1 µM) was 86.2%, the viability, T/C (second compound 3 µM, first compound 3.16 µM) was 101% and the viability, T/C (second compound 3 µM, first compound 10 µM) was 0.33%.
With COc1c(OCCCN2CCOCC2)ccc2c3n(c(=NC(=O)c4cnc(N)nc4)nc12)CCN3 + Cc1c(S(C)(=O)=O)c(-c2cc(F)cc(N3CCN(c4ccc(NS(=O)(=O)c5ccc(NC(CCN6CCC(C(=O)OCCCP(=O)(O)O)CC6)CSc6ccccc6)c(S(=O)(=O)C(F)(F)F)c5)cc4)CC3)c2)c(-c2ccc(Cl)cc2)n1C(C)C the IC50 (second compound 0.0316 µM) was 0.222 µM, the IC50 (second compound 0.1 µM) was 0.0847 µM and the IC50 (second compound 0.316 µM) was < 0.00316 µM. The IC50 (second compound 1 µM) was < 0.00316 µM, the IC50 (second compound 3.16 µM) was < 0.00316 µM and the IC50 (second compound 10 µM) was < 0.00316 µM. The viability, T/C (second compound 0.0316 µM, first compound 0.00316 µM) was 87.5%, the viability, T/C (second compound 0.0316 µM, first compound 0.01 µM) was 84.8% and the viability, T/C (second compound 0.0316 µM, first compound 0.0316 µM) was 55.2%. The viability, T/C (second compound 0.0316 µM, first compound 0.1 µM) was 70.2%, the viability, T/C (second compound 0.0316 µM, first compound 0.316 µM) was 46.7% and the viability, T/C (second compound 0.0316 µM, first compound 1 µM) was 27.4%. It also gave a viability, T/C (second compound 0.1 µM, first compound 0.00316 µM) of 82.7%, a viability, T/C (second compound 0.1 µM, first compound 0.01 µM) of 61% and a viability, T/C (second compound 0.1 µM, first compound 0.0316 µM) of 61.6%. The viability, T/C (second compound 0.1 µM, first compound 0.1 µM) was 53.4%, the viability, T/C (second compound 0.1 µM, first compound 0.316 µM) was 34% and the viability, T/C (second compound 0.1 µM, first compound 1 µM) was 17.3%. The viability, T/C (second compound 0.316 µM, first compound 0.00316 µM) was 42%, the viability, T/C (second compound 0.316 µM, first compound 0.01 µM) was 38.9% and the viability, T/C (second compound 0.316 µM, first compound 0.0316 µM) was 39%. The viability, T/C (second compound 0.316 µM, first compound 0.1 µM) was 30.5%, the viability, T/C (second compound 0.316 µM, first compound 0.316 µM) was 28% and the viability, T/C (second compound 0.316 µM, first compound 1 µM) was 13%. The viability, T/C (second compound 1 µM, first compound 0.00316 µM) was 33.9%, the viability, T/C (second compound 1 µM, first compound 0.01 µM) was 36.3% and the viability, T/C (second compound 1 µM, first compound 0.0316 µM) was 33.5%. It also gave a viability, T/C (second compound 1 µM, first compound 0.1 µM) of 20.5%, a viability, T/C (second compound 1 µM, first compound 0.316 µM) of 15.8% and a viability, T/C (second compound 1 µM, first compound 1 µM) of 6.07%. For the same molecule, the viability, T/C (second compound 3.16 µM, first compound 0.00316 µM) was 15.3%, the viability, T/C (second compound 3.16 µM, first compound 0.01 µM) was 18.2% and the viability, T/C (second compound 3.16 µM, first compound 0.0316 µM) was 16.9%. It also gave a viability, T/C (second compound 3.16 µM, first compound 0.1 µM) of 11.9%, a viability, T/C (second compound 3.16 µM, first compound 0.316 µM) of 4.31% and a viability, T/C (second compound 3.16 µM, first compound 1 µM) of 2.03%. For the same molecule, the viability, T/C (second compound 10 µM, first compound 0.00316 µM) was 17.6%, the viability, T/C (second compound 10 µM, first compound 0.01 µM) was 14.4% and the viability, T/C (second compound 10 µM, first compound 0.0316 µM) was 8.58%. It also gave a viability, T/C (second compound 10 µM, first compound 0.1 µM) of 7.73%, a viability, T/C (second compound 10 µM, first compound 0.316 µM) of 2.64% and a viability, T/C (second compound 10 µM, first compound 1 µM) of 1.68%.
